Data: patent US9321735B2, “Insecticidal triazines and pyrimidines” (Vestaron Corporation, priority 2010, dated 2016)

Test system: beet army worm (Spodoptera exigua)
Assay: Insecticidal test for beet armyworm (diet surface treatment, larval mortality)
Type: in vivo
Conditions: 100 μg/cm^2 on diet surface; first instar larvae, 32 insects per treatment; observations 24, 48 and 96 hours after treatment
Procedure: The compounds identified in Table 8 were prepared according to the previous methods and were tested against beet armyworm and corn earworm as follows:
Insecticidal Test for Beet Armyworm (Spodoptera Exigua).
To prepare the test solution, the test compound was Formulated at 3499 ppm in solution as 5 mg compound/1.429 mL of 9 parts acetone: 1 part deionized H2O and vortexed to homogenize. 50 μL of the 3499 ppm (equivalent to 100 μg/cm^2 dose on diet surface area) test solution was pipetted upon the surface of 1 mL of solidified cool Southland Products Incorporated Beet Armyworm Diet (201 Stuart Island Road Lake Village, Ark. 71653) using an Eppendorf Repeater Plus with a 1 mL pipette tip. All pipetting of treatments was done in a Labconco Hood. Thirty minutes were allowed for the acetone to evaporate leaving a dose of 100 μg/cm^2 on the surface of the artificial diet. Two 24 hour old first instar Beet Armyworm(Spodoptera Exigua) larvae were placed in each well of the 128 well Bio-BA 128 Bioassay trays (CD International, Pitman, N.J., 08071, USA) using a #0 fine camel hair paint brush. Bioassay trays were sectioned into treatment groups of 8 with 16 replicates per treatment group (32 insects per treatment). […] The number of insects dead were counted out of the 32 insects total per treatment and the results are given in a table as a percent mortality at a dose of 100 μg/cm^2. […]

Fc1cccc(Cl)c1-c1nc(NN=Cc2ccc(C(F)(F)F)cc2)nc(Nc2ccc(Cl)nc2)n1 [Example 51, 4-(2-chloro-6-fluorophenyl)-N-(6-chloropyridin-3-yl)-6-(2-(4-(trifluoromethyl)benzylidene)hydrazinyl)-1,3,5-triazin-2-amine]
Mortality: A (A=76-100% mortality)
